Measured values published in the NIST ThermoML archive (doi:10.1021/je700646e).

Assay: xn = mol fraction of the nth substance listed
Conditions: Fluid (supercritical or subcritical phases), Taylor dispersion method, x1 = 0

| binary diffusion coefficient (313.16 K, 15000 kPa) [m2/s] | binary diffusion coefficient (313.16 K, 20000 kPa) [m2/s] | binary diffusion coefficient (313.16 K, 25000 kPa) [m2/s] | binary diffusion coefficient (313.16 K, 30000 kPa) [m2/s] | binary diffusion coefficient (313.16 K, 35000 kPa) [m2/s] | binary diffusion coefficient (323.16 K, 15000 kPa) [m2/s] | binary diffusion coefficient (323.16 K, 20000 kPa) [m2/s] | binary diffusion coefficient (323.16 K, 25000 kPa) [m2/s] | binary diffusion coefficient (323.16 K, 30000 kPa) [m2/s] | binary diffusion coefficient (323.16 K, 35000 kPa) [m2/s] | binary diffusion coefficient (333.16 K, 15000 kPa) [m2/s] | binary diffusion coefficient (333.16 K, 20000 kPa) [m2/s] | binary diffusion coefficient (333.16 K, 25000 kPa) [m2/s] | binary diffusion coefficient (333.16 K, 30000 kPa) [m2/s] | binary diffusion coefficient (333.16 K, 35000 kPa) [m2/s] | Structure (SMILES) |
| --- | --- | --- | --- | --- | --- | --- | --- | --- | --- | --- | --- | --- | --- | --- | --- |
| 9.29e-09 | 7.69e-09 | 6.96e-09 | 6.37e-09 | 6.1e-09 | 1.14e-08 | 9.08e-09 | 8.03e-09 | 7.39e-09 | 6.91e-09 | 1.21e-08 | 1.04e-08 | 9.19e-09 | 8.32e-09 | 7.9e-09 | C=CCc1ccc(O)c(OC)c1 [2-hydroxy-5-allylanisole] + O=C=O |
| 8.97e-09 | 8.05e-09 | 7.39e-09 | 6.95e-09 | 6.58e-09 | 1.06e-08 | 9.25e-09 | 8.65e-09 | 7.83e-09 | 7.5e-09 | 1.15e-08 | 1.08e-08 | 9.59e-09 | 8.92e-09 | 8.29e-09 | CC(=O)CCc1ccccc1 [4-phenyl-2-butanone] + O=C=O |
| 1.05e-08 | 8.06e-09 | 7.53e-09 | 6.82e-09 | 6.7e-09 | 1.3e-08 | 1.01e-08 | 8.65e-09 | 7.82e-09 | 7.25e-09 | 1.49e-08 | 1.19e-08 | 9.82e-09 | 8.78e-09 | 8.36e-09 | CCOC(=O)c1ccccc1 [ethyl benzoate] + O=C=O |
